The record followed here is patent US10597735B2, “Antibacterial and plasmid elimination agents” (priority 2006, dated 2020).

Assay [1] addresses T1, ClpXP (Escherichia coli, UniProt P0A6G7+P0A6H1). In words: ClpXP degradation of GFP-tag in the presence of SspB, continuous fluorimetric assay (Examples 1-2). The assay is classed as biochemical, E. coli. To be noted: GFP-tag degradation by ClpXP. On the procedure:
(§1) ClpXP Proteolysis: PD buffer contained 25 mM HEPES-KOH (pH 7.6), 5 mM KCl, 5 mM MgCl2, 0.032% NP-40, 5 mM ATP, and 10% glycerol. The ATP regenerating system consisted of 8 mM creatine phosphate and 0.16 mg/ml creatine kinase. Inhibition experiments were performed using a Hitachi F-2000 Fluorescence Spectrophotometer. The rate of GFP-ssrA degradation was monitored at 30° C. for 5 minutes by the loss of fluorescence (excitation 488 nm; emission 507 nm). Competition experiments with increasing concentrations of peptide were performed using GFP-ssrA (0.2 μM), ClpX6 (0.3 ArM), ClpP14 (0.8 μM), and SspB2 (0.3 μM) in PD buffer plus 200 mM KCl and ATP regenerating system. Curve fitting for the competitive inhibition assays were performed using the Scientist program (MicroMath Scientific Software, Inc.).
Characterization of ClpXP inhibitors in vitro: Two of the selected cyclic peptides were synthesized in vitro to examine their effects on enzymatic assays. Peptides with the sequence SGWRVQGPL (SEQ ID NO: 1) and SGSKGVLPL (SEQ ID NO: 2) were chemically synthesized in the linear form, circularized, and purified by HPLC. The effects of these peptides on the activity of purified ClpXP were determined in vitro using a continuous fluorimetric assay. GFP-tag, SspB, ClpX and ClpP were each purified from over-expressing strains of E. coli, and degradation of GFP-tag was monitored by loss of fluorescence. In reactions containing all components, GFP-tag was degraded with kinetic parameters kcat=1.79±0.08 min−1, KM=0.74±0.04, similar to the previously published values of 1.44 min^−1 and 0.96 μM. […] For both cyclic peptides, inhibition of ClpXP was reversible, as no inhibition was observed when ClpXP was incubated with peptide at concentrations above the Kr, and dialyzed to remove unbound peptide before addition of enzyme to the reaction. The linear versions of SGSKGVLPL (SEQ ID NO: 2) and SGWRVQGPL (SEQ ID NO: 1) had Kb, values >1 mM (Table 4), so the cyclic architecture is likely to be important for inhibition.

Assay [2] deals with T1, ClpXP. In words: ClpXP degradation of GFP-tag in the absence of SspB (Examples 1-2). The format is biochemical, E. coli. To be noted: no SspB; for Ki: GFP-tag degradation by ClpXP. On the procedure:
as §1
A priori, there are several steps in the degradation pathway that could be inhibited by the selected cyclic peptides: binding of the substrate-SspB complex to ClpXP, ATPase activity of ClpX, and hydrolysis of the peptide bond by ClpP. Molecules that block the binding of substrate to SspB should not be inhibitors of proteolysis by ClpXP, because ClpXP will degrade tmRNA-tagged substrates in the absence of SspB. To determine if the inhibitors act through SspB, the kinetic assays were repeated in the absence of this proteolytic adaptor.

The subject of assay [3] is C. crescentus. The assay is classed as cell-based, Caulobacter crescentus. As for the experimental part: Antibacterial activity: The peptides recovered from the selection were tested for antibacterial activity by incubating a 1:1,000 diluted saturated culture with the peptide overnight at room temperature. For each peptide a series of concentrations were tested. The mix was then plated, and the colonies were counted after a period incubation at 30° for C. crescentus or 37° C. for B. subtilis. For C. crescentus, PYE liquid media were incubated overnight at 30° C. at 250 rpm, and PYE plates were incubated for 3 days at 30° C. For B. subtilis, LB liquid media and plates were incubated overnight at 37° C. […]
Antibacterial activity of cyclic peptide inhibitors: Because ClpXP is essential in C. crescentus, we examined whether the inhibitory peptides have any effect when added exogenously to growing cultures. […] ClpXP is not essential in Bacillus subtilis, but mutants lacking ClpXP activity have growth and sporulation defects. […] No killing of E. coli or the related γ-proteobacteria Shigella flexneri and Vibrio cholera was observed. It remains to be determined if the selected cyclic peptides are effective against pathogenic bacterial that require the tmRNA-ClpXP pathway.

Assay [4] deals with T1, ClpXP. Nature of the assay: biochemical. The assay is classed as biochemical, E. coli. To be noted: for Ki: purified peptides and E. coli proteins, GFP-tag. As for the experimental part: In vitro proteolysis assays: Proteolysis of GFP-tag was performed using a continuous fluorescence assay essentially as previously described (Levchenko et al. 2000, Science 289: 2354-2356). Briefly, loss of GFP fluorescence was monitored at 507 nm after excitation at 395 nm at 30° C. using a Hitachi F-2000 Fluorescence Spectrophotometer in buffer R (25 mM HEPES-KOH (pH 7.6), 5 mM MgCl2, 50 mM KCl, 0.032% NP-40, 10% glycerol, and an ATP regeneration system containing 4 mM ATP (pH 7), 16 mM creatine phosphate and 0.32 mg/ml creatine kinase). Typically, reactions contained […], 0.3 μM ClpP14, and equimolar concentrations (0.2 μM-2.0 μM) GFP-tag and SspB. Degradation of GFP-tag protein was confirmed by SDS-PAGE assays. To examine inhibition of GFP-tag proteolysis, peptides were incubated with ClpXP in reaction buffer for 5 min prior to the addition of GFP-tag. Plots of fluorescence versus time were fit with a single exponential function to determine the initial rate of proteolysis. Kinetic parameters were estimated using Eadie-Hofstee plots.
Proteolysis of GFP-tag in the presence of ClpXP and SspB was monitored by loss of GFP fluorescence in a continuous fluorometric assay. In the absence of cyclic peptide, GFP-tag was degraded with kinetic parameters kcat=[…], KM=0.74±0.04 μM. […] Likewise, no degradation was observed when ClpX or ClpP were omitted from the reaction.

In assay [5] the test system is C. crescentus. The format is cell-based, Caulobacter crescentus. To be noted: 14 h. On the procedure: Antibacterial activity assays: To measure the effects of peptides on bacterial growth, cultures of C. crescentus were diluted to OD600=0.001, peptide was added at various concentrations, the cultures were incubated at 30° C. for 14 h, and the MIC was determined as the lowest concentration of peptide that prevented growth. To determine the MBC, each culture was diluted 1:100 in PYE and 10 μl of the diluted culture was spread onto PYE agar plates, incubated at 30° C. overnight, and the number of colonies on each plate was counted. The MBC was assigned as the concentration of peptide that reduced the number of colonies by 99.9% compared to cultures with no inhibitor.

In assay [6] the target is T1, ClpXP. In words: ClpXP degradation of λO protein (Example 1). The assay is classed as biochemical, E. coli. To be noted: concentrations near or 10-fold above the KI for GFP-tag. As for the experimental part:
The differing effects of SspB on inhibition indicate that inhibitors for two different steps in the ClpXP degradation pathway were obtained from the genetic screen. To confirm the different specificities of these two inhibitors, the effects on ClpXP degradation of a substrate unrelated to tmRNA tagged proteins was assayed. Because ClpXP can recognize at least 5 different protein sequences as substrate determinants, it has been proposed that there are several substrate binding sites on the protease. Inhibitors that block one site of interaction are expected to affect degradation of only the substrates that bind at that site. Conversely, inhibitors that block catalysis or obstruct a binding site required by all substrates should affect degradation of any ClpXP substrate.

Assay [7] concerns GFP-tag degradation by ClpXP. Nature of the assay: In vivo screen: GFP-tag reporter fluorescence in E. coli producing the cyclic peptide from a SICLOPPS plasmid, epifluorescence microscopy (Example 3). The format is cell-based. As for the experimental part:
Screen for inhibitors of the tmRNA pathway: E. coli BW7786 cells containing the GFP-tag reporter and the SICLOPPS library were grown in LB broth with 30 μg/ml chloramphenicol, 100 μg/ml ampicillin, and 0.0002% arabinose at 37° C. to OD600=0.3. IPTG was added to a final concentration of 1 mM, and the culture was grown for 3 hours. Cells were sorted by fluorescence activated cell sorting (FACS) using a Beckman Coulter Elite cell sorter with Autoclone to isolate cells with GFP fluorescence, and selected cells were deposited on agar plates for clonal growth. Cells from each colony were grown in liquid culture as described above and examined by epifluorescence microscopy. The fluorescence intensity and the number of cells with fluorescence above background were scored using ImagePro software (MediaCybernetics). SICLOPPS plasmid DNA was prepared from selected clones and the region encoding the cyclic peptide was sequenced. Peptide sequences were obtained from conceptual translation of the DNA sequences.
Approximately 0.014% of the population had fluorescence over the background level, and 96 of these cells were isolated for clonal growth and characterization. To eliminate any clones that resulted from sorting errors or spurious accumulation of GFP, cells from each colony were cultured and examined by epifluorescence microscopy.

A further assay has as its system GFP-tag reporter. In words: GFP-tag reporter fluorescence in cells expressing SGW+5 SICLOPPS clones, epifluorescence microscopy (Example 1). The format is cell-based, E. coli. From the text:
Clonal populations are obtained by spotting the cells with high fluorescence on agar plates, and cells from each colony are screened by epi-fluorescence microscopy for fluorescence intensity. SICLOPPS plasmids from clones that pass the microscopy screen were isolated and sequenced to identify the cyclic peptide that is produced in that clone.
A SICLOPPS library was constructed in which the cyclic peptide contains three constant amino acids, SGW, followed by five random amino acids encoded by NNS codons. This library was introduced into cells containing the GFP-tag reporter, and the expression of the reporter and cyclic peptide were induced. Approximately 690,000 cells were sorted by FACS and the brightest 50 were isolated. These 50 clones were grown individually in fresh medium, the expression of reporter and cyclic peptide was induced, and the culture was observed by epifluorescence microscopy. Two clones produced cultures in which nearly 100% of the cells were highly fluorescent.

The mark [8] stands for this setting: SspB present, read-out: KI value +SspB.

≈ marks a conversion by molar mass, not a printed value. Read-outs that look alike come from different tables or passages of the source. Where a SMILES comes first, the peptide text is derived from it. Where no end group is shown, it is not given here. Some results are limits rather than exact numbers.

T1 sequence (P0A6G7 15-207): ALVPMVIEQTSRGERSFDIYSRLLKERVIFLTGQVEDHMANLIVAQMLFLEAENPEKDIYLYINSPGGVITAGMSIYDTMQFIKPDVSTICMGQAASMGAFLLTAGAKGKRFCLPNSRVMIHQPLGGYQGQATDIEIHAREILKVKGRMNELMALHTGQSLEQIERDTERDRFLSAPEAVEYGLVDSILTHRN
T1 sequence (P0A6H1 whole entry): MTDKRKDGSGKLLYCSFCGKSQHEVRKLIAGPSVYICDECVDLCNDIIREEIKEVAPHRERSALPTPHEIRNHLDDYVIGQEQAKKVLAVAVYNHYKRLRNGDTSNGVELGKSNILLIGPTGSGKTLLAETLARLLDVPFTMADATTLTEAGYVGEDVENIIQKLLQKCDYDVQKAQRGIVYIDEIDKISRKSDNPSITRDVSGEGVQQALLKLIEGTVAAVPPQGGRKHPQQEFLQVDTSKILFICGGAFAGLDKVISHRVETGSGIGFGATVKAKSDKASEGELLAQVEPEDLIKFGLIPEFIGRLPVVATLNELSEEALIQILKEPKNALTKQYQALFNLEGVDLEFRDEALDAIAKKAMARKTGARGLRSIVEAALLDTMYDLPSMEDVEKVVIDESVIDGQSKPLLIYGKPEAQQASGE

On to `CSCC[C@@H]1NC(=O)[C@H](Cc2c[nH]c3ccccc23)NC(=O)[C@H](CCCCN)NC(=O)[C@H](Cc2ccc(O)cc2)NC(=O)[C@@H]2CCCN2C(=O)[C@H](Cc2c[nH]c3ccccc23)NC(=O)CNC(=O)[C@H](CO)NC1=O` [Con62, SGWPYKWM, reference compound] (HELM PEPTIDE1{G.W.P.Y.K.W.M.S}$PEPTIDE1,PEPTIDE1,1:R1-8:R2$$$V2.0), for which the Ki on ClpXP [1] (setting [8]), at ClpXP [2] and on ClpXP [4] (SspB present) was > 1000 µM in each case. Besides, the MIC (usually the lowest concentration found to suppress growth) against C. crescentus [3] was >250 µM; against C. crescentus [5], >600 µM. For the same compound, the minimal bactericidal concentration (MBC) (in general, the lowest tested concentration that kills the bacteria rather than only halting them) in the assay on C. crescentus [5] is >600 µM.
On to `CC(C)C[C@@H]1NC(=O)[C@@H]2CCCN2C(=O)[C@H](CC(C)C)NC(=O)[C@H](C(C)C)NC(=O)CNC(=O)[C@H](CCCCN)NC(=O)[C@H](CO)NC(=O)CNC(=O)[C@H](CO)NC1=O` [ICP1, SGSKGVLPL] (HELM PEPTIDE1{G.S.K.G.V.L.P.L.S}$PEPTIDE1,PEPTIDE1,1:R1-9:R2$$$V2.0), for which, on ClpXP [2], the “inhibition of GFP-tag degradation by ClpXP in the absence of SspB” value was “inhibited”. For the same compound, the “effect on degradation of λO protein by ClpXP” value at ClpXP [6] is recorded as “inhibited”. This compound yielded an MIC in the assay on C. crescentus [3] of 62.2 µM (≈ 52.2 µg/mL). Further, the “mode of inhibition of GFP-tag degradation” value at ClpXP [4] (SspB present) was “competitive inhibitors”. In addition, the “inhibition of ClpXP proteolysis of GFP-tag in vitro” value (from here on “inhibition … of GFP-tag in vitro”) on ClpXP [4] (at the concentrations tested) is “inhibited”.
Turning to `CSCC[C@@H]1NC(=O)CNC(=O)[C@H](CCCNC(=N)N)NC(=O)[C@H](CCCNC(=N)N)NC(=O)[C@H](Cc2c[nH]cn2)NC(=O)[C@H](Cc2c[nH]c3ccccc23)NC(=O)CNC(=O)[C@H](CO)NC1=O` [IXP2, SGWHRRGM] (HELM PEPTIDE1{G.M.S.G.W.H.R.R}$PEPTIDE1,PEPTIDE1,1:R1-8:R2$$$V2.0), in assay [7] (cells with fluorescence at least 0.5 times that of ΔclpX cells producing GFP-tag), the “% fluorescent cells” value is 30-40%. In addition, in assay [7] (compared with ΔclpX strain), the “GFP-tag fluorescence / inhibition in vivo” value is recorded as “indistinguishable from the ΔclpX strain”. Besides, the “average fluorescent intensity relative to cultures expressing ICP1 or ICP2” value in the assay with GFP-tag reporter is recorded as “more than twice”. In addition, the cells highly fluorescent in the assay with GFP-tag reporter (induced culture) is recorded as ~100%. Further, the “inhibition … of GFP-tag in vitro” value against ClpXP [4] (at the concentrations tested) is on record as “did not inhibit”. For the same compound, the Ki (usually a measure of affinity in units of concentration, obtained from inhibition or displacement) at ClpXP [4] (SspB present) is > 1000 µM. For the same compound, in the assay with C. crescentus [5], the minimal bactericidal concentration (MBC) is >600 µM and the MIC is 430 ± 40 µM (≈ 416 µg/mL).
As to H-SGSKGVLPL-OH [linICP1, SGSKGVLPL], the Ki was > 1500 µM at ClpXP [1] (setting [8]); > 1000 µM at ClpXP [1] (read-out: Kb, values (KI) of linear versions); > 1500 µM at ClpXP [2]. In the assay on C. crescentus [3], the minimum inhibitory concentration (MIC) is >250 µM. Also, at ClpXP [4], the “inhibition of ClpXP in vitro at concentrations up to 1 mM” value was “little inhibition”.
Regarding H-SGWYGRRH-OH [linear IXP1, SGWYGRRH], the Ki on ClpXP [4] (SspB present) was > 1000 µM. Moreover, the “inhibition of ClpXP in vitro at concentrations up to 1 mM” value at ClpXP [4] is given as “little inhibition”. In the assay with C. crescentus [5], this compound registered an MBC of 481 ± 38 µM and an MIC of 385 ± 28 µM.
On to “SGGRGGRPL (also: cyclic, mode of cyclisation not given here) [IXP5]”, for which the “inhibition … of GFP-tag in vitro” value with ClpXP [4] was “did not inhibit”.
In the assay on C. crescentus [5], SGWHRRGM [linear IXP2, SGWHRRGM] came in with a minimum bactericidal concentration (MBC) of 376 ± 37 µM and a minimal inhibitory concentration (MIC) of 304 ± 27 µM.
As for SGWRVQGPL [linICP2, SGWRVQGPL], in the assay with C. crescentus [3], the MIC is >250 µM.
